# From PubChem BioAssay (NCI)
#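 GI50 is the concentration that inhibits growth by half. TGI marks complete inhibition of growth.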
# How the values were obtained:
# Experiment in all cases: NCI tumour cell line growth inhibition, 384-well format
# [1] = tested on: 786-0 renal
# [2] = tested on: A498 renal
# [3] = tested on: A549 NSCLC
# [4] = tested on: ACHN renal
# [5] = tested on: BT-549 breast
# [6] = tested on: CAKI-1 renal
# [7] = tested on: COLO 205 colon
# [8] = tested on: DU-145 prostate
# [9] = tested on: EKVX NSCLC
# [10] = tested on: HCT-15 colon
# [11] = tested on: HL-60(TB) leukemia
# [12] = tested on: HOP-62 NSCLC
# [13] = tested on: HOP-92 NSCLC
# [14] = tested on: HS 578T breast
# [15] = tested on: HT29 colon
# [16] = tested on: IGROV1 ovarian
# [17] = tested on: K-562 leukemia
# [18] = tested on: KM12 colon
# [19] = tested on: M14 melanoma
# [20] = tested on: MALME-3M melanoma
# [21] = tested on: MCF7 breast
# [22] = tested on: MDA-MB-231 breast
# [23] = tested on: MDA-MB-435 melanoma
# [24] = tested on: MDA-MB-468 breast
# [25] = tested on: MOLT-4 leukemia
# [26] = tested on: NCI-H226 lung
# [27] = tested on: NCI-H23 lung
# [28] = tested on: NCI-H322M lung
# [29] = tested on: NCI-H460 NSCLC
# [30] = tested on: NCI-H522 lung
# [31] = tested on: OVCAR-3 ovarian
# [32] = tested on: OVCAR-4 ovarian
# [33] = tested on: OVCAR-5 ovarian
# [34] = tested on: OVCAR-8 ovarian
# [35] = tested on: PC-3 prostate
# [36] = tested on: RXF 393 renal
# [37] = tested on: SF-268 CNS
# [38] = tested on: SF-295 CNS
# [39] = tested on: SF-539 CNS
# [40] = tested on: SK-MEL-2 melanoma
# [41] = tested on: SK-MEL-28 melanoma
# [42] = tested on: SK-MEL-5 melanoma
# [43] = tested on: SK-OV-3 ovarian
# [44] = tested on: SN12C renal
# [45] = tested on: SNB-19 CNS
# [46] = tested on: SNB-75 CNS
# [47] = tested on: SR leukemia
# [48] = tested on: SW-620 colon
# [49] = tested on: T-47D breast
# [50] = tested on: TK-10 renal
# [51] = tested on: U251 glioblastoma
# [52] = tested on: UACC-257 melanoma
# [53] = tested on: UACC-62 melanoma
# [54] = tested on: UO-31 renal
compound,measurement,setting,value
Cc1nc(Nc2n[nH]c3c2CN(C(=O)N[C@H](CN(C)C)c2ccccc2)C3(C)C)c2sccc2n1,GI50,[1],58.1 nM
same,TGI,[1],1920 nM
same,GI50,[2],30.1 nM
same,TGI,[2],2380 nM
same,GI50,[3],39.6 nM
same,TGI,[3],61700 nM
same,GI50,[4],35.6 nM
same,TGI,[4],3060 nM
same,GI50,[5],< 10 nM
same,TGI,[5],109 nM
same,GI50,[6],52.2 nM
same,TGI,[6],2790 nM
same,GI50,[7],< 10 nM
same,TGI,[7],193 nM
same,GI50,[8],< 10 nM
same,TGI,[8],10200 nM
same,GI50,[9],195 nM
same,TGI,[9],2140 nM
same,GI50,[10],449 nM
same,TGI,[10],13600 nM
same,GI50,[11],< 10 nM
same,TGI,[11],117 nM
same,GI50,[12],< 10 nM
same,TGI,[12],113 nM
same,GI50,[13],131 nM
same,TGI,[13],911 nM
same,GI50,[14],93.6 nM
same,TGI,[14],763 nM
same,GI50,[15],10.8 nM
same,TGI,[15],1750 nM
same,GI50,[16],< 10 nM
same,TGI,[16],449 nM
same,GI50,[17],< 10 nM
same,TGI,[17],3390 nM
same,GI50,[18],< 10 nM
same,TGI,[18],1060 nM
same,GI50,[19],18.8 nM
same,TGI,[19],1500 nM
same,GI50,[20],< 10 nM
same,TGI,[20],1490 nM
same,GI50,[21],< 10 nM
same,TGI,[21],193 nM
same,GI50,[22],102 nM
same,TGI,[22],1240 nM
same,GI50,[23],< 10 nM
same,TGI,[23],1670 nM
same,GI50,[24],< 10 nM
same,TGI,[24],431 nM
same,GI50,[25],< 10 nM
same,TGI,[25],122 nM
same,GI50,[26],88.1 nM
same,TGI,[26],1590 nM
same,GI50,[27],< 10 nM
same,TGI,[27],214 nM
same,GI50,[28],174 nM
same,TGI,[28],1580 nM
same,GI50,[29],< 10 nM
same,TGI,[29],1300 nM
same,GI50,[30],< 10 nM
same,TGI,[30],214 nM
same,GI50,[31],< 10 nM
same,TGI,[31],152 nM
same,GI50,[32],40.6 nM
same,TGI,[32],3790 nM
same,GI50,[33],61.3 nM
same,TGI,[33],11200 nM
same,GI50,[34],33.3 nM
same,TGI,[34],1470 nM
same,GI50,[35],< 10 nM
same,TGI,[35],642 nM
same,GI50,[36],144 nM
same,TGI,[36],960 nM
same,GI50,[37],118 nM
same,TGI,[37],1350 nM
same,GI50,[38],57.1 nM
same,TGI,[38],2290 nM
same,GI50,[39],< 10 nM
same,TGI,[39],1020 nM
same,GI50,[40],< 10 nM
same,TGI,[40],207 nM
same,GI50,[41],< 10 nM
same,TGI,[41],1260 nM
same,GI50,[42],< 10 nM
same,TGI,[42],827 nM
same,GI50,[43],178 nM
same,TGI,[43],8090 nM
same,GI50,[44],< 10 nM
same,TGI,[44],1150 nM
same,GI50,[45],382 nM
same,TGI,[45],12500 nM
same,GI50,[46],274 nM
same,TGI,[46],1410 nM
same,GI50,[47],< 10 nM
same,GI50,[48],< 10 nM
same,TGI,[48],2210 nM
same,GI50,[49],576 nM
same,TGI,[49],3840 nM
same,GI50,[50],179 nM
same,TGI,[50],11000 nM
same,GI50,[51],< 10 nM
same,TGI,[51],2660 nM
same,GI50,[52],19 nM
same,TGI,[52],632 nM
same,GI50,[53],< 10 nM
same,TGI,[53],19.4 nM
same,GI50,[54],1610 nM
same,TGI,[54],14400 nM
